Read-outs that look alike come from different tables or passages of the source.
What was measured:
BMDM [1] = assay: Cytokine secretion by LPS-stimulated BMDM (ELISA); format: cell-based, mouse; settings: LPS-stimulated BMDM, metformin 0.5 mM 16 hrs
Text: (§1) Paired antibodies (capture and detection) and standard recombinant mouse IL-1β (R&D Systems), and TNF and IL-6 (eBioscience) were used to determine mouse cytokine concentrations according to manufacturer's instructions.

BMDM [2] = assay: Q-PCR quantitation of cytokine mRNAs in LPS-stimulated BMDM; format: cell-based, mouse
Method: RNA was extracted using AllPrep DNA/RNA Mini kit, and cDNA was synthesized using SuperScript™ VILO™ cDNA Synthesis Kit. mRNA expression was determined by QPCR in a CFX96 thermal cycler (Biorad) as described (Zhong et al., 2016). Data are presented in arbitrary units and calculated by the 2^(−ΔΔCT) method. Primer sequences were obtained from the NIH qPrimerDepot (http://mouseprimerdepot.nci.nih.gov) and provided by Integrated DNA technologies.

Il6 and Il1b promoters = assay: ChIP-qPCR of transcription factor recruitment to Il6 and Il1b promoters in BMDM; format: cell-based, mouse; settings: LPS
Method: Cells were fixed using 0.75% formaldehyde for 10 min followed by 0.125 M glycine to stop the crosslinking reaction. […] Nuclei were pelleted at 1,000 g in a cold microfuge and resuspended in B buffer (50 mM Tris, pH 8.0, 5 mM EDTA and 1% SDS plus inhibitors). […] Nuclear extracts were immunoprecipitated with respective antibodies. The co-immunoprecipitated material was then subjected to qPCR analysis using specific primers.

[3] = tested on: SARS-CoV-2 USA-WA1/2020 strain; assay: SARS-CoV-2 infection in hACE2 mice; format: in vivo, mouse
LPS-induced ARDS = settings: for protection from LPS-induced ARDS: last dose 30 min prior to 5 mg/kg LPS
Method: Briefly, 5 mg/kg LPS or vehicle was i.p. injected and the mice were euthanized 8, 24 or 48 hrs later. […] In all cases, at the experimental endpoint the lungs were inflated with cold PBS, excised and fixed in 10% formalin for histological evaluation.
as §1
Lungs were fixed in 10% formalin for 24 hrs and embedded in paraffin, sectioned and stained with hematoxylin and eosin (H&E) to evaluate gross morphology and lung damage and inflammation; and with Sirius red to determine collagen buildup. Ten to twelve H&E stained sections from each animal were scored for the degree of lung inflammation and damage by two blinded mouse lung pathology experts as described (Jupelli et al., 2013), and the scores were averaged. Briefly, the degree of lung inflammation was assigned an arbitrary score of 0 (normal=no inflammation, no airway thickening, no edema), 1 (minimal cellular infiltration, and minimal edema), 2 (mild-moderate cellular infiltration, plus mild airway thickening and mild edema), 3 (severe cellular infiltration, plus diffuse airway thickening and severe edema) in 10-12 fields per mouse.
Lung sections were subjected to incubation with antibodies specific for F4/80 (macrophage marker), myeloperoxidase (MPO, neutrophil marker), c/EBPb, NFATc2 and NFATc3. Stained areas were quantified using ImageJ software.
NLRP3 inflammasome activation in the lung was detected by immunofluorescence co-staining with F4/80 and ASC antibodies. Briefly, lung sections were hydrated and boiled at 96° C. in citrate buffer 1× for 20 min. Sections were blocked with 2% BSA/PBS1X containing 1% normal horse serum for 1 hr at room temperature. F4/80 and ASC antibodies were incubated in blocking solution overnight at 4° C. After washing, Alexa secondary antibodies were added and the sections were incubated in 2% BSA/PBS1X for 1 hr at room temperature. Sections were washed, incubated with DAPI, and mounted using FluoSave. Sections were imaged through a Leica SP5 confocal microscope. The percentage of F4/80^+ cells with ASC specks were quantified in 18-26 high magnification fields from 4-5 mice per group.

NLRP3 inflammasome [4] = assay: NLRP3 inflammasome activation in LPS-primed BMDM; format: cell-based, mouse
POLγ = POLγ activity assay in lysates of treated macrophages; format: cell-based, mouse
NLRP3 inflammasome [5] = assay: NLRP3 inflammasome activation in LPS-primed mouse microglia; format: cell-based; settings: different NLRP3 activators, metformin 0.5 mM 16 hrs
[6] = LC-MS/MS metformin concentration in plasma; settings: 24 hrs after LPS challenge, oral and i.p.
Method: Pooled mice plasma (CD-1 (ICR) MSE00PLK2, BioIVT) was selected as blank matrix for standards and quality control samples. Sample preparation procedure was adopted from literatures with minor modifications. […] The samples mix were vortexed for 2 minutes then sonicated for 1 min and centrifuged at 6100 g for 10 min. Supernatants were transferred into a new set 96-well plate, and 10 μL were injected for LC-MS/MS analysis. […] The solution was then serially diluted with 50% methanol-water to obtain standard working solutions over a concentration range of 10-2000 ng/ml. The quality control (QC) samples were prepared in three concentrations: 10, 100, and 500 ng/ml.
LC-MS/MS system was performed using an Agilent 1290 Infinity HPLC and HiP ALS (Autosampler) coupled with AB Sciex 6500 Q-Trap mass spectrometer. All data were acquired using Analyst (AB SCIEX v1.7.1). […] The mobile phase A was 20 mM ammonium acetate buffer in water and 100% acetonitrile as mobile phase B. A total 7 min gradient run with a flow rate of 0.8 ml/min was implemented. […] The mass spectrometer was operated in a positive mode using scheduled multiple reaction morning (sMRM).

NLRP3 inflammasome [7] = assay: NLRP3 inflammasome activation in human macrophages; format: cell-based; settings: LPS 20 ng/ml 3 hrs, ATP 2 mM 30 min, metformin 0.5 mM 16 hrs
[8] = BMDM, metformin 0.5 mM 16 h, LPS
[9] = Cmpk2ΔMye mice, 50 mg/kg metformin
[10] = therapeutic, 50 mg/kg i.p. after LPS
[11] = BMDM, metformin 0.5 mM 16 h, LPS 4 h

CN(C)C(=N)NC(=N)N [metformin, N,N-dimethylbiguanide]
IL-6 secretion (BMDM [1]): inhibited | TNF release (BMDM [1]): unaffected | Il1b and Il6 mRNA after metformin treatment (BMDM [2]; AMPKα1 silenced (shPrkaa1) LPS-treated macrophages): still declined | decline in Il1b and Il6 mRNA induction by LPS (BMDM [2]; BMDM, metformin 0.5 mM 16 h): 30-50% | induction of Ifnb and Ifng mRNAs (BMDM [2]; [8]): did not inhibit induction | induction of Il10 mRNA (BMDM [2]; [8]): potentiated induction | other cytokine and chemokine mRNAs (Tnf, Il12, Il23, Ccl2, Ccl3, Ccl4, Ccl5) (BMDM [2]; BMDM, metformin 0.5 mM 16 h, LPS 100 ng/ml 4 hrs): little effect | Il1b and Il6 mRNA expression (BMDM [2]; LPS-stimulated Il10−/− BMDM): still inhibited | c/EBPβ and NFATc1-4 recruitment to the Il6 promoter (Il6 and Il1b promoters): inhibited | infection-associated loss of body weight ([3]; day 2 post-inoculation): slowed down | immune cell infiltration, alveolar wall thickening and c/EBPβ activation ([3]; hACE2 Tg mice, 50 mg/kg i.p. from 2 days before infection, 6 days post-infection): reduced | macrophages with ASC specks in lungs ([3]; hACE2 Tg mice, 50 mg/kg, day 6 post-infection): almost none | protection from LPS-induced ARDS (LPS-induced ARDS; 10 mg/kg i.p. three consecutive days): modest protective effect | protection from LPS-induced ARDS (LPS-induced ARDS; 50 mg/kg i.p. three consecutive days): strong protection | IL-1β and IL-6 in BALF (LPS-induced ARDS; 50 mg/kg prophylactic): decreased | TNF in BALF (LPS-induced ARDS; 50 mg/kg prophylactic): no effect | collagen buildup (LPS-induced ARDS; 50 mg/kg prophylactic): abrogated | infiltration of inflammatory cells into bronchioles, vascular bed and lung parenchyma (LPS-induced ARDS; 50 mg/kg prophylactic): inhibited | macrophage and neutrophil infiltration (LPS-induced ARDS; 50 mg/kg prophylactic, F4/80 and MPO staining): strongly inhibited | septa thickening (LPS-induced ARDS; 50 mg/kg prophylactic, lung histology): prevented | c/EBPβ activation and IL-6 secretion to BALF (LPS-induced ARDS; [9]): did inhibit | lung pathology or IL-1β secretion (LPS-induced ARDS; [9]): did not result in noticeable improvement | preventive efficacy of oral metformin (LPS-induced ARDS; drinking water 400 mg/kg starting 48 hrs prior to LPS): as protective as injected metformin | ASC speck formation in lung (LPS-induced ARDS; prophylactic metformin): limited | c/EBPβ and NFAT activation in lung (LPS-induced ARDS; prophylactic metformin): limited | IL-1β in BALF (LPS-induced ARDS; [10]): decreased | macrophage and neutrophil infiltration (LPS-induced ARDS; [10]): inhibited | nigericin- and ATP-induced ASC speck formation (NLRP3 inflammasome [4]; BMDM, metformin 0.5 mM 16 h): inhibited | expression of inflammasome components NLRP3, ASC, pro-Casp1 and NEK7 (NLRP3 inflammasome [4]; [11]): no effect | pro-IL 1β protein (NLRP3 inflammasome [4]; [11]): modestly decreased | inhibition of nigericin-induced ASC specks (NLRP3 inflammasome [4]; BMDM, nigericin): incomplete | effect of AMPKα1 ablation on inhibition of Casp1 activation or IL-1β processing and secretion by metformin (NLRP3 inflammasome [4]; LPS-primed Ampkα1−/− BMDM stimulated with ATP): no effect | LDH release (NLRP3 inflammasome [4]; LPS-primed BMDM with NLRP3 agonists, metformin 0.5 mM 16 hrs): reduced | gasdermin D (GSDMD) cleavage (NLRP3 inflammasome [4]; LPS-primed BMDM, metformin 0.5 mM 16 h): inhibited | Casp1 activation and pro-IL-1β processing to mature IL-1β (NLRP3 inflammasome [4]; LPS-primed macrophages with ATP, nigericin, alum or MSU, metformin 0.5 mM 16 h): inhibited | IL-1β and Casp1 p20 release (NLRP3 inflammasome [4]; Ndufs4-deficient BMDM, LPS + ATP, metformin 0.5 mM 16 hrs): did not further reduce | effect on Casp1 activation and pro-IL-1β processing (NLRP3 inflammasome [4]; nigericin-challenged macrophages): relatively modest | Casp1 activation and IL-1β secretion (NLRP3 inflammasome [4]; p62- and ATG7-deficient macrophages, LPS + ATP): still inhibited | POLγ activity (POLγ; lysates of LPS-stimulated macrophages, assay mix lacking exogenous ATP): decreased | effect of AMPKα1 deficiency on POLγ expression or activity (POLγ; lysates of metformin treated LPS stimulated BMDM): no effect | POLγ activity (POLγ; lysates of metformin treated LPS-stimulated macrophages, addition of ATP at 10 mM): fully restored | Casp1 p20 and IL-1β secretion (NLRP3 inflammasome [5]): abrogated | circulating concentrations [6]: equally low | Casp1 p20 and IL-1β secretion (NLRP3 inflammasome [7]): abrogated

Source: patent US12642780B2, “Methods and compositions to treat and prevent viral infections and acute respiratory distress syndrome” (priority 2020, dated 2026)
